Test results: patent US20260274861A1, “FUSED RING COMPOUND, PREPARATION METHOD THEREFOR AND MEDICINAL APPLICATION THEREOF” (JIANGSU HENGRUI PHARMACEUTICALS CO., LTD., priority 2022, published 2026)

Key:
GP2d cells = test: Inhibition of 3D proliferation of GP2d cells (CellTiter-Glo 3D); assay type: cell-based; details: 120 h, 5 days
Description: (§1) The inhibitory effects of the compounds of the present disclosure on the KRAS target were evaluated by assessing the inhibitory effects of the compounds of the present disclosure on the 3D proliferation of GP2d and AGS cells.
(§2) GP2d cells were cultured in a complete culture medium, namely a DMEM/high glucose culture medium (Hyclone, SH30243.01) containing 10% fetal bovine serum (Corning, 35-076-CV). On the first day of the experiment, the GP2d cells were seeded into a 96-well low-adsorption plate (Corning, CLS7007-24EA) with a complete culture medium at a density of 1000 cells/well, with each well containing 90 μL of a cell suspension. The plate was centrifuged at 2000 rpm for 5 min at room temperature and then incubated overnight in a 37° C., 5% CO2 cell incubator.
(§3) The next day, the test compounds, serially diluted in a complete culture medium, were added at 10 μL/well. The final concentrations of the compounds for GP2d cells were 9 concentration points obtained by 5-fold serial dilution from 1 μM, and the final concentrations of the compounds for AGS cells were 9 concentration points obtained by 5-fold serial dilution from […]. A blank control containing 0.5% DMSO was set for both types of cells. The plates were incubated in a 37° C., 5% CO2 cell incubator for 5 days. On the seventh day, the 96-well cell culture plates were taken out, and 50 μL of the CellTiter-Glo® 3D Cell Viability Assay reagent (Promega, G^9682) was added to each well. The plates were shaken at room temperature in the dark for 25 min. The contents in the wells were pipetted for good uniformity, and 100 μL of the mixture was transferred from each well to a white impermeable 96-well plate (PerkinElmer, 6005290). The luminescence signal values were obtained using a multi-mode microplate reader (PerkinElmer, EnVision2105).

AsPC-1 cells = test: Inhibition of 3D proliferation of AsPC-1 cells (CellTiter-Glo 3D); assay type: cell-based; details: Homo sapiens, ASPC1, 120 h, 5 days
Description: On the first day of the experiment, well-grown AsPC-1 cells with 70%-80% confluency were digested and resuspended in an RPMI 1640 culture medium (Hyclone, SH30809.01) containing 10% FBS, and the cell density was adjusted to the desired level. The cell suspension was added to a U-shaped low-adsorption 96-well plate (Corning, CLS7007-24EA) at 90 μL/well, with a cell density of 1500 cells/well. The cell plate was centrifuged at 2500 rpm for 5 min and then incubated overnight in a 37° C., 5% CO2 incubator. The next day, 20 mM test compounds dissolved in DMSO were diluted to an initial concentration of 2 mM and then serially diluted 5-fold, and a total of 9 concentration points were obtained. Control wells were set using DMSO. The serially diluted compounds were then further diluted 20-fold with a culture medium. The test compounds, diluted with the culture medium, were added to the cell plate at 10 μL/well, with the final concentrations of the compounds being 9 concentration points obtained by 5-fold serial dilution from an initial concentration of 10 μM. Cell wells containing 0.5% DMSO were set as vehicle control wells, and wells containing only the culture medium and 0.5% DMSO were set as blank control wells. A duplicate well was set for each concentration of the compounds and the control wells, with the final concentration of DMSO in each well being 0.5%. The cell plate was centrifuged at 2500 rpm for 3 min and then incubated in a 37° C., 5% CO2 incubator for 5 days. On the seventh day, the 96-well cell culture plate was taken out, and 50 μL of the CellTiter-Glo® Luminescent 3D Cell Viability Assay reagent (Promega, G^9683) was added to each well. The plates were shaken at room temperature in the dark for 25 min. The contents in the wells were pipetted up and down for good uniformity, and then 100 μL of the mixture was transferred from each well to a white impermeable OptiPlate™-96-well plate (PerkinElmer, 6005290). The luminescence signal values were obtained using a multi-mode microplate reader (PerkinElmer, EnVision2105).
The inhibition rate was calculated using the formula: inhibition rate=(luminescence valuevehicle control well−luminescence valuetest compound)/(luminescence valuevehicle control well−luminescence valueblank control well)×100%. Curves were plotted using GraphPad Prism software based on the various concentrations of the compounds and the corresponding inhibition rates, and IC50 values for the compounds were calculated.

[1] = Pharmacokinetic evaluation in balb/c nude mice after intragastric administration; assay type: in vivo; details: female, mouse, po, i.g., 40.0 mg/kg, plasma; for Vd/F: read-out: Apparent distribution volume Vz/F; for AUC(0-t): read-out: Area under curve AUC0-t; for CL/F: read-out: Clearance rate CL/F; for half-life: read-out: Half-life T½ (converted); for Cmax: read-out: Plasma concentration Cmax
Description: Balb/c nude mice were used as test animals. After intragastric (i.g.) administration of example compounds to balb/c nude mice, the plasma concentrations at different time points were determined by the LC/MS/MS method. The pharmacokinetic behavior of the compounds of the present disclosure in balb/c nude mice was studied, and their pharmacokinetic profiles were evaluated.
Eighteen female balb/c nude mice, provided by Vital River Laboratory Animal Technology Co., Ltd. with production license SCXK (Zhejiang) 2019-0001, were evenly divided into 2 groups.
A certain amount of a test compound was weighed out, and 5% DMF+45% PG+50% (10% HS15-pH 7.4 buffer)+400 mpk SNAC was added to prepare a 4 mg/mL colorless clear solution.
The dose administered was 40.0 mg/kg, and the volume was 10 mL/kg.
0.1-mL blood samples were collected from the orbit before administration and 0.25 h, 0.5 h, 1.0 h, 2.0 h, 4.0 h, 6.0 h, 8.0 h, 11.0 h, and 24.0 h after administration. The blood samples were placed into EDTA-K2 anticoagulation test tubes and centrifuged at 10,000 rpm for 1 min (4° C.), and plasma was separated within 1 h and stored at −20° C. before analysis. The procedure starting from the blood collection to the centrifugation was performed under ice-bath conditions.
After administration of different concentrations of the test compounds, the plasma concentration of the test compounds in balb/c nude mice was determined: A 25-μL sample of the balb/c nude mouse plasma of each time point after administration was taken, and 200 μL of acetonitrile containing an internal standard (for compound 37, the internal standard was 100 ng/mL verapamil; for compound 39, the internal standard was 100 ng/mL diclofenac) was added. The mixture was vortexed for 5 min and centrifuged at 3700 rpm for 20 min, and the supernatant was mixed with water (1:1). 0.5-2 μL of the supernatant was taken and analyzed by LC/MS/MS. 4. Pharmacokinetic parameters

AGS cells = test: Inhibition of 3D proliferation of AGS cells (CellTiter-Glo 3D); assay type: cell-based; details: Homo sapiens, 120 h, 5 days
Description: as §1
as §2, with “AGS” for “GP2d”, “an RPM11640” for “a DMEM/high glucose culture”, “SH30809.01)” for “SH30243.01)”
as §3

[2] = system: ERK phosphorylation in AGS cells; test: Inhibition of ERK phosphorylation in AGS cells (HTRF method); assay type: cell-based; details: Homo sapiens, 1 h incubation
Description: In the experiment, the inhibitory effects of the compounds of the present disclosure on the KRAS target were evaluated by assessing the inhibitory effects of the compounds on ERK phosphorylation in cells and based on IC50 values.
AGS cells were cultured in an RPMI1640 (Hyclone, SH30809.01) complete culture medium containing 10% fetal bovine serum. On the first day of the experiment, the AGS cells were seeded into a 96-well plate with a complete culture medium at a density of 40,000 cells/well, with each well containing 190 μL of a cell suspension. The plate was incubated overnight in a 37° C., 5% CO2 cell incubator.
The next day, the test compounds, serially diluted in a complete culture medium, were added at 10 μL/well. The final concentrations of the compounds were 9 concentration points obtained by 5-fold serial dilution from 10 μM. A blank control containing 0.5% DMSO was set. The plate was incubated in a 37° C., 5% CO2 cell incubator for 1 h. After the incubation, the 96-well cell culture plate was taken out, and the culture medium was removed using a pipette. The plate was washed once by adding 200 μL of PBS (Shanghai BasalMedia Technologies Co., Ltd., B320) to each well. The PBS was removed using a pipette, and 50 μL of a lysis buffer (Cisbio, 64KL1FDF) containing a blocking reagent (Cisbio, 64KB1AAC) was added to each well. The plate was shaken on a shaker at room temperature for 40 min for lysis. After lysis, the lysate was pipetted for good uniformity. […]
On the third day, the fluorescence values at an excitation wavelength of 337 nm and emission wavelengths of 665 nm and 620 nm were obtained using a multi-mode microplate reader (PerkinElmer, EnVision).
The ratio of the fluorescence signal at 665 nm to the fluorescence signal at 620 nm was calculated for phosphorylated ERK1/2 and total ERK1/2 for the compounds at various concentrations, and IC50 values for the inhibitory activity of the compounds were calculated using Graphpad Prism software based on the concentrations of the compounds and the phosphorylated ERK1/2 ratios corrected using the total ERK1/2 ratios.

SMILES	IC50 (GP2d cells) [nM]	IC50 (AsPC-1 cells) [nM]	Vd/F [1] [L/kg]	AUC(0-t) [1] [ng·h/mL]	CL/F [1] [mL/min/kg]	half-life [1] [h]	Cmax [1] [ng/mL]	IC50 (AGS cells) [nM]	IC50 [2] [nM]
C[C@@H]1Oc2nc(-c3cc(N)cc(Cl)c3C(F)(F)F)c(F)c3nc(OCC4(CN5CCC(=C(F)F)CC5)CC4)nc(c23)N2C[C@H]3CC[C@H](N3)[C@@H]12 [Example 39, 3-Chloro-5-((5S,5aS,6S,9R)-12-((1-((4-(difluoromethylene)piperidin-1-yl)methyl)cyclopropyl)methoxy)-1-fluoro-5-methyl-5a,6,7,8,9,10-hexahydro-5H-4-oxa-3,10a,11,13,14-pentaaza-6,9-methanonaphtho[1,8-ab]heptalen-2-yl)-4-(trifluoromethyl)aniline]	0.17	2.6	64.2	7210	73.7	10.1	578	6.7	–
CCc1c(F)ccc2cc(O)cc(-c3nc4c5c(nc(OCC6(CN7CCOCC7)CC6)nc5c3F)N3C[C@H]5CC[C@H](N5)[C@H]3CO4)c12 [Example 1, 5-Ethyl-6-fluoro-4-((5aS,6S,9R)-1-fluoro-12-((1-(morpholinomethyl)cyclopropyl)methoxy)-5a,6,7,8,9,10-hexahydro-5H-4-oxa-3,10a,11,13,14-pentaaza-6,9-methanonaphtho[1,8-ab]heptalen-2-yl)naphthalen-2-ol]	5.2	–	–	–	–	–	–	16.7	0.96
C[C@@H]1Oc2nc(-c3ccc(F)c4sc(N)c(C#N)c34)c(F)c3nc(OCC4(CN5CCC(=CF)CC5)CC4)nc(c23)N2C[C@H]3CC[C@H](N3)[C@@H]12 [Example 37, 2-Amino-7-fluoro-4-((5S,5aS,6S,9R)-1-fluoro-12-((1-((4-(fluoromethylene)piperidin-1-yl)methyl)cyclopropyl)methoxy)-5-methyl-5a,6,7,8,9,10-hexahydro-5H-4-oxa-3,10a,11,13,14-pentaaza-6,9-methanonaphtho[1,8-ab]heptalen-2-yl)benzo[b]thiophene-3-carbonitrile]	0.4	2.4	78	5260	113	7.95	699	4.7	–
CCc1c(F)ccc2cc(O)cc(-c3nc4c5c(nc(OCC6(CN7C[C@H]8C[C@@H]7CO8)CC6)nc5c3F)N3C[C@H]5CC[C@H](N5)[C@H]3CO4)c12 [Example 3, 4-((5aS,6S,9R)-12-((1-(((1R,4R)-2-Oxa-5-azabicyclo[2.2.1]heptan-5-yl)methyl)cyclopropyl)methoxy)-1-fluoro-5a,6,7,8,9,10-hexahydro-5H-4-oxa-3,10a,11,13,14-pentaaza-6,9-methanonaphtho[1,8-ab]heptalen-2-yl)-5-ethyl-6-fluoronaphthalen-2-ol]	–	–	–	–	–	–	–	–	1.2
CCc1c(F)ccc2cc(O)cc(-c3nc4c5c(nc(OCC6(CN7C[C@@H]8C[C@H]7CO8)CC6)nc5c3F)N3C[C@H]5CC[C@H](N5)[C@H]3CO4)c12 [Example 2, 4-((5aS,6S,9R)-12-((1-(((15,4S)-2-Oxa-5-azabicyclo[2.2.1]heptan-5-yl)methyl)cyclopropyl)methoxy)-1-fluoro-5a,6,7,8,9,10-hexahydro-5H-4-oxa-3,10a,11,13,14-pentaaza-6,9-methanonaphtho[1,8-ab]heptalen-2-yl)-5-ethyl-6-fluoronaphthalen-2-ol]	–	–	–	–	–	–	–	–	1.5
